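All cell lines were grown in 96-well plates and treated with compound for 48 hours. Abbreviation: GI50, concentration required for 50% inhibition of growth.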 Active and inactive are the calls of the source. No stated cut-off is given here; in the data, active = GI50 up to about 1.1 µM and inactive = higher.
Legend:
Assay in all cases: NCI tumour cell line growth inhibition, 48 h
M14 = system: M14
MOLT-4 = system: MOLT-4
HCT-116 = system: HCT-116
MDA-MB-435 = system: MDA-MB-435
SW-620 = system: SW-620
A498 = system: A498
HT-29 = system: HT-29
A549 = system: A549
Hs-578T = system: Hs-578T
K562 = system: K562
SR = system: SR
ACHN = system: ACHN
UACC-62 = system: UACC-62
IGROV-1 = system: IGROV-1
SNB-19 = system: SNB-19
NCI-H226 = system: NCI-H226
COLO 205 = system: COLO 205
SF-539 = system: SF-539
SK-OV-3 = system: SK-OV-3
U-251 = system: U-251

Measured: GI50

COCCN(C(=O)c1ccccc1)C1CCC(=O)c2[nH]c3ccccc3c21 (stereo not given)
inactive: M14 7.11 µM | MOLT-4 6.64 µM | HCT-116 13.1 µM | MDA-MB-435 6.87 µM | SW-620 8.28 µM | A498 19.1 µM | HT-29 9.98 µM | A549 15.6 µM | Hs-578T 15.5 µM | K562 3.85 µM | SR 3.2 µM | ACHN 16.7 µM | UACC-62 17.8 µM | IGROV-1 3.65 µM | SNB-19 11.2 µM | NCI-H226 6.28 µM | COLO 205 15.5 µM | SF-539 7.1 µM | SK-OV-3 15.5 µM | U-251 2.08 µM

CCCCCCCCCCCCCCCCOP(=O)([O-])OCC[N+](C)(C)C [MILTEFOSINE]
inactive: M14 16.4 µM | MOLT-4 8.73 µM | HCT-116 18.2 µM | MDA-MB-435 17.9 µM | SW-620 20.8 µM | A498 12.9 µM | HT-29 7.8 µM | A549 7.11 µM | Hs-578T 19.3 µM | K562 39 µM | SR 6.21 µM | ACHN 16 µM | UACC-62 20.2 µM | IGROV-1 2.77 µM | SNB-19 17.7 µM | NCI-H226 20.7 µM | COLO 205 5.58 µM | SF-539 30.5 µM | SK-OV-3 8.91 µM | U-251 15.3 µM
